Source: patent publication US20050032243A1, “Method and apparatus for rapid determination of ligand-protein binding using charcoal adsorption” (priority 2001, published 2005)

How the values were obtained:
HSA = conditions: literature reference value; cited from earlier work
[1] = molecular target: T1, human serum albumin (HSA) (Homo sapiens, UniProt P02768); assay: in vitro
Procedure: Solutions were allowed to incubate at room temperature for 30 minutes and 200 μl samples were loaded onto the DCC cartridge. Elution was initiated and samples collected under vacuum at 5, 10 and 60 seconds.
(§1) Ultrafiltration Experiments. […] Samples (0.5 ml) were centrifuged (1500×g; 3 minutes) at 25° C.
0.1 μCi/ml) in isotonic PBS and dilutions of a 40 mg/ml HSA solution were prepared. Solutions were allowed to incubate at room temperature for 30 minutes and 200 μl samples were loaded onto the DCC cartridge. Elution was initiated and samples were collected under vacuum at 1 second and at 60 seconds. Adsorption of each ligand also was evaluated after 2 hours of DCC exposure.
as §1
Evaluation of Alternative HSA Site I-Specific Ligands.
The relationship between the extent of adsorption and the unbound fraction for each ligand can be described by Equation 1. y=yo+a(1−e^−bx) Equation 1

[2] = molecular target: T1, human serum albumin (HSA); assay: Time course of ligand adsorption in packed-bed DCC cartridge in the presence of HSA; conditions: HSA 40 mg/ml, at termination of experiment (5 minutes)
Procedure: Model Ligand Adsorption Experiments in the DCC Cartridge. […] Charcoal adsorption experiments were conducted in the packed-bed DCC cartridge (20 mg, 10% DCC). Cartridges were prepared and preconditioned with a 40-mg/ml solution of HSA. […] 200 μl samples were loaded onto the DCC cartridge. Elution was initiated and samples collected under vacuum at 1, 2, 5, 10, 20, 40, 60, 120 and 300 seconds.
Ligand Adsorption Experiments in the DCC Cartridge. […] Charcoal adsorption experiments were conducted in a packed-bed DCC cartridge (20 mg DCC, 10% w/w). Cartridges were prepared and preconditioned with a 40 mg/ml solution of HSA. […] 200 μl samples were loaded onto the DCC cartridge. Elution was initiated and samples collected under vacuum at 1, 2, 5, 10, 20, 40, 60, 120 and 300 seconds.

[3] = 1 minute DCC exposure, mean ± SE

T1 sequence (P02768 25-609): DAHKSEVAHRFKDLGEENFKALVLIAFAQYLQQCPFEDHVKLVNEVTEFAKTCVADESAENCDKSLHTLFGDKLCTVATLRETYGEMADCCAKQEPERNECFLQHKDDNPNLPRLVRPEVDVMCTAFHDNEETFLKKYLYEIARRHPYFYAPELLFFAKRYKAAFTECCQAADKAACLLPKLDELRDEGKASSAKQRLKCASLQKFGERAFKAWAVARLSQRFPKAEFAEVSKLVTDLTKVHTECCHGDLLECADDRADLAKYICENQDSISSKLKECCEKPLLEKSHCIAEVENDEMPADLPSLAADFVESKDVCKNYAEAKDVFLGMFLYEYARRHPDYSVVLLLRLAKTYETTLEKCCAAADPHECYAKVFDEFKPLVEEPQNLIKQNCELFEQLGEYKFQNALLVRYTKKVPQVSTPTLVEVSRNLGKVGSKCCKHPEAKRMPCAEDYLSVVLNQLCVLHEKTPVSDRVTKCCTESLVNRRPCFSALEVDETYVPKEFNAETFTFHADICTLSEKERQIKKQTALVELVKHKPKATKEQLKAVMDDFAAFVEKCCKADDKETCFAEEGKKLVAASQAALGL

Compound: CCCC(CCC)C(=O)O [[^3H]-VPA, valproic acid, valproate]
- UNBOUND FRACTION (HSA): 0.1
- a (empirical parameter of Equation 1) [1]: 82.9 ± 8.6
- b (empirical parameter of Equation 1) [1]: 1.5 ± 0.4
- Yo (intercept of Equation 1, extent of adsorption at unbound fraction 0) ([1]; human): 27.0 ± 4.1
- fraction unbound at 10 mg/ml ([1]; human): ~0.8

Compound: C[C@H]1O[C@@H](O[C@H]2[C@@H](O)C[C@H](O[C@H]3[C@@H](O)C[C@H](O[C@H]4CC[C@@]5(C)[C@H](CC[C@@H]6[C@@H]5CC[C@]5(C)[C@@H](C7=CC(=O)OC7)CC[C@]65O)C4)O[C@@H]3C)O[C@@H]2C)C[C@H](O)[C@@H]1O [[^3H]-DIGT, digitoxin]
- UNBOUND FRACTION (HSA): 0.05
- adsorption to DCC in the presence of HSA [2]: ~100%
- Yo (intercept of Equation 1, extent of adsorption at unbound fraction 0) [1, 3]: 0
- a (empirical parameter of Equation 1) [1, 3]: 95.6 ± 0.3
- b (empirical parameter of Equation 1) [1, 3]: 29.5 ± 0.7
- DCC adsorption as unbound fraction approached 0.2 ([1]; 1 minute of charcoal exposure): nearly complete

Compound: O=C1NC(=O)C(c2ccccc2)(c2ccccc2)N1 [[^3H]-DPH, diphenylhydantion]
- UNBOUND FRACTION (HSA): 0.12
- adsorption after 1 minute of exposure to DCC, restricted or not [1]: not restricted

Compound: CC(C)NCC(O)COc1cccc2ccccc12 (stereo not drawn) [[^3H]-PRO, propanonol]
- UNBOUND FRACTION (HSA): 0.13

Compound: N[C@@H](Cc1c[nH]c2ccccc12)C(=O)O [[^3H]-TRP, L-tryptophan]
- UNBOUND FRACTION (HSA): 0.5
